In patent publication EP1680415B1, “PYRROLIDINYL UREA DERIVATIVES AS ANGIOGENESIS INHIBITORS” (ABBOTT LABORATORIES, priority 2003, dated 2005):

Test system: HMVEC
Assay: human microvascular endothelial (HMVEC) migration assay
Assay type: cell-based
Conditions: Homo sapiens, Inhibition of HMVEC migration, activators 15 ng/mL bFGF/VEGF, 4 hours at 37 °C, compared to a positive control; for inhibition at 0.0001 µM: 0.1 nM; for inhibition at 0.001 µM: 1 nM
Procedure: The human microvascular endothelial (HMVEC) migration assay was run according to the procedure of S. S. Tolsma, O. V. Volpert, D. J. Good, W. F. Frazier, P. J. Polverini and N. Bouck, J. Cell Biol. 122, 497-511 (1993).
The HMVEC migration assay was carried out using Human Microvascular Endothelial Cells-Dermal (single donor) and Human Microvascular Endothelial Cells, (neonatal). The BCE or HMVEC cells were starved overnight in DME containing 0.01% bovine serum albumin (BSA). Cells were then harvested with trypsin and resuspended in DME with 0.01 % BSA at a concentration of 1.5 X 10^6 cells per mL. Cells were added to the bottom of a 48 well modified Boyden chamber (Nucleopore Corporation, Cabin John, MD). The chamber was assembled and inverted, and cells were allowed to attach for 2 hours at 37 °C to polycarbonate chemotaxis membranes (5 µm pore size) that had been soaked in 0.01 % gelatin overnight and dried. The chamber was then reinverted, and test substances (total volume of 50 µL), including activators, 15 ng/mL bFGF/VEGF, were added to the wells of the upper chamber. The apparatus was incubated for 4 hours at 37 °C. Membranes were recovered, fixed and stained (Diff Quick, Fisher Scientific) and the number of cells that had migrated to the upper chamber per 3 high power fields counted. Background migration to DME + […] was subtracted and the data reported as the number of cells migrated per 10 high power fields (400X) or, when results from multiple experiments were combined, as the percent inhibition of migration compared to a positive control.

| SMILES | inhibition at 0.0001 µM | inhibition at 0.001 µM |
| --- | --- | --- |
| CCCN(C(=O)N[C@@H]1CCN(C(=O)c2ccc(C)nc2)C1)C(C)C [Example 64, N-isopropyl-N'-{(3R)-1-[(6-methylpyridin-3-yl)carbonyl]pyrrolidin-3-yl}-N-propylurea] | 70% | – |
| CCCN(C(=O)N[C@@H]1CCN(C(=O)c2ccc(C)nc2)C1)C(C)CC (stereo partly drawn) [Example 65, N-(sec-butyl)-N'-{(3R)-1-[(6-methylpyridin-3-yl)carbonyl]pyrrolidin-3-yl}-N-propylurea] | – | 98% |
| CCCCN(CCCC)C(=O)N[C@@H]1CCN(C(=O)c2ccc(C)nc2)C1 [Example 66, N,N-dibutyl-N'-{(3R)-1-[(6-methylpyridin-3-yl)carbonyl]pyrrolidin-3-yl} urea] | 84% | – |
| Cc1ccc(C(=O)N2CC[C@@H](NC(=O)N(CCC#N)C3CC3)C2)cn1 [Example 67, N-(2-cyanoethyl)-N-cyclopropyl-N'-{(3R)-1-[(6-methylpyridin-3-yl)carbonyl]pyrrolidin-3-yl}urea] | 73% | – |
| CCC1CCCCN1C(=O)N[C@@H]1CCN(C(=O)c2ccc(C)nc2)C1 (stereo partly drawn) [Example 68, 2-ethyl-N-{(3R)-1-[(6-methylpyridin-3-yl)carbonyl]pyrrolidin-3-yl}piperidine-1-carboxamide] | – | 46% |
| CCCC1CCN(C(=O)N[C@@H]2CCN(C(=O)c3ccc(C)nc3)C2)CC1 [Example 69, N-{(3R)-1-[(6-methylpyridin-3-yl)carbonyl]pyrrolidin-3-yl} -4-propylpiperidine-1-carboxamide] | 87% | – |
| Cc1ccc(C(=O)N2CC[C@@H](NC(=O)N3CCCCCC3)C2)cn1 [Example 70, N-{(3R)-1-[(6-methylpyridin-3-yl)carbonyl]pyrrolidin-3-yl}azepane-1-carboxamide] | 97% | – |
| CCN(CCOC)C(=O)N[C@@H]1CCN(C(=O)c2ccc(C)nc2)C1 [Example 71, N-ethyl-N-(2-methoxyethyl)-N'-{(3R)-1-[(6-methylpyridin-3-yl)carbonyl]pyrrolidin-3-yl}urea] | 53% | – |
| CCCN(CCOC)C(=O)N[C@@H]1CCN(C(=O)c2ccc(C)nc2)C1 [Example 72, N-(2-methoxyethyl)-N'-{(3R)-1-[(6-methylpyridin-3-yl)carbonyl]pyrrolidin-3-yl}-N-propylurea] | 89% | – |
| COCCN(CCOC)C(=O)N[C@@H]1CCN(C(=O)c2ccc(C)nc2)C1 [Example 73, N,N-bis(2-methoxyethyl)-N'-{(3R)-1-[(6-methylpyridin-3-yl)carbonyl]pyrrolidin-3-yl}urea] | 71% | – |
| Cc1ccc(C(=O)N2CC[C@@H](NC(=O)N3CC4(C)CC3CC(C)(C)C4)C2)cn1 (stereo partly drawn) [Example 74, 1,3,3-trimethyl-N-{(3R)-1-[(6-methylpyridin-3-yl)carbonyl]pyrrolidin-3-yl}-6-azabicyclo[3.2.1]octane-6-carboxamide] | 68% | – |
| Cc1ccc(C(=O)N2CC[C@@H](NC(=O)N(C)CCc3ccccc3)C2)cn1 [Example 75, N-methyl-N'-{(3R)-1-[(6-methylpyridin-3-yl)carbonyl]pyrrolidin-3-yl}-N-(2-phenylethyl)urea] | – | 76% |
| CCC(C)N1CCN(C(=O)N[C@@H]2CCN(C(=O)c3ccc(C)nc3)C2)CC1 (stereo partly drawn) [Example 76, 4-sec-butyl-N-{(3R)-1-[(6-methylpyridin-3-yl)carbonyl]pyrrolidin-3-yl}piperazine-1-carboxamide] | 58% | – |
| CCOCCN1CCN(C(=O)N[C@@H]2CCN(C(=O)c3ccc(C)nc3)C2)CC1 [Example 77, 4-(2-ethoxyethyl)-N-{(3R)-1-[(6-methylpyridin-3-yl)carbonyl]pyrrolidin-3-yl}piperazine-1-carboxamide] | 58% | – |
| Cc1ccc(C(=O)N2CC[C@@H](NC(=O)N3CCN(C4CCCCC4)CC3)C2)cn1 [Example 78, 4-cyclohexyl-N-{(3R)-1-[(6-methylpyridin-3-yl)carbonyl]pyrrolidin-3-yl}piperazine-1-carboxamide] | 67% | – |
